# Results as given in ChEMBL document CHEMBL1201862, “PubChem BioAssay data set” (2004).
#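 Each compound was tested at five concentrations against cells in 96-well plates for 48 hours. GI50: concentration for 50% inhibition of growth.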 Active and inactive are the calls of the source. Rule as the data show it: active = GI50 up to about 1.1 µM and inactive = higher.
# How the values were obtained:
# Assay in all cases: DTP human tumour cell line panel, 48 h
# UACC-257 = test system: UACC-257
# MDA-N = test system: MDA-N
# HCT-15 = test system: HCT-15
# HL-60 = test system: HL-60
# SN12C = test system: SN12C
# NCI/ADR-RES = test system: NCI/ADR-RES
# HCC 2998 = test system: HCC 2998
# SK-MEL-2 = test system: SK-MEL-2
# SR = test system: SR
# SF-295 = test system: SF-295
# NCI-H226 = test system: NCI-H226
# SK-MEL-5 = test system: SK-MEL-5
# T47D = test system: T47D
# LOX IMVI = test system: LOX IMVI
# M14 = test system: M14
# Hs-578T = test system: Hs-578T
# SW-620 = test system: SW-620
# SF-268 = test system: SF-268
# HOP-92 = test system: HOP-92
# RPMI-8226 = test system: RPMI-8226
SMILES,GI50 (UACC-257),GI50 (MDA-N),GI50 (HCT-15),GI50 (HL-60),GI50 (SN12C),GI50 (NCI/ADR-RES),GI50 (HCC 2998),GI50 (SK-MEL-2),GI50 (SR),GI50 (SF-295),GI50 (NCI-H226),GI50 (SK-MEL-5),GI50 (T47D),GI50 (LOX IMVI),GI50 (M14),GI50 (Hs-578T),GI50 (SW-620),GI50 (SF-268),GI50 (HOP-92),GI50 (RPMI-8226)
CN1CCN(c2n[nH]c(=O)c3c2nnn3C2CCCCC2)CC1,> 100 µM (inactive),> 100 µM (inactive),> 100 µM,> 100 µM (inactive),> 100 µM (inactive),> 100 µM (inactive),> 100 µM (inactive),> 100 µM (inactive),> 100 µM (inactive),> 100 µM (inactive),> 100 µM (inactive),> 100 µM (inactive),> 100 µM (inactive),> 100 µM (inactive),> 100 µM (inactive),> 100 µM (inactive),> 100 µM (inactive),> 100 µM (inactive),> 100 µM (inactive),> 100 µM (inactive)
CCN(CC)c1cc2c3c(c1)CCCN3CCC2,> 10 µM (inactive),> 10 µM (inactive),> 10 µM,> 10 µM (inactive),> 10 µM (inactive),> 10 µM (inactive),> 10 µM (inactive),> 10 µM (inactive),> 10 µM (inactive),> 10 µM (inactive),> 10 µM (inactive),> 10 µM (inactive),> 10 µM (inactive),> 10 µM (inactive),> 10 µM (inactive),> 10 µM (inactive),> 10 µM (inactive),> 10 µM (inactive),> 10 µM (inactive),> 10 µM (inactive)
C=C(C)[C@@H]1CC=C(CO)CC1 [PERILLYL ALCOHOL],533 µM (inactive),> 10 µM (inactive),167 µM,50.1 µM (inactive),555 µM (inactive),> 10 µM (inactive),753 µM (inactive),122 µM (inactive),152 µM (inactive),266 µM (inactive),251 µM (inactive),110 µM (inactive),> 10 µM (inactive),195 µM (inactive),710 µM (inactive),> 10 µM (inactive),637 µM (inactive),84.1 µM (inactive),117 µM (inactive),> 10 µM (inactive)
O=[N+]([O-])c1cc(-[n+]2cc([O-])on2)ccc1F,16.8 µM (inactive),16.1 µM (inactive),20.3 µM,22.6 µM (inactive),16.7 µM (inactive),21.2 µM (inactive),14.4 µM (inactive),15.6 µM (inactive),6.24 µM (inactive),17.3 µM (inactive),23.4 µM (inactive),15 µM (inactive),2.49 µM (inactive),14.9 µM (inactive),16.1 µM (inactive),26.7 µM (inactive),18.4 µM (inactive),14.8 µM (inactive),16.9 µM (inactive),8.97 µM (inactive)
COc1c2c(c(OC)c3c1c(=O)c1ccccc1n3C)OCO2,> 100 µM (inactive),2.08 µM (inactive),26.1 µM,3.18 µM (inactive),33.5 µM (inactive),44.9 µM (inactive),5.2 µM (inactive),> 19.9 µM (inactive),3.69 µM (inactive),14.1 µM (inactive),> 50.4 µM (inactive),3.14 µM (inactive),6.7 µM (inactive),5.48 µM (inactive),9.51 µM (inactive),4.79 µM (inactive),4.13 µM (inactive),18.5 µM (inactive),> 47.8 µM (inactive),11.4 µM (inactive)
FC(F)(F)c1ccc2c(c1)nc(-c1ccccc1)n2CC1CCCN2CCCCC12 (stereo not drawn),15.9 µM (inactive),17.6 µM (inactive),21.9 µM,14.3 µM (inactive),18.6 µM (inactive),16.3 µM (inactive),16 µM (inactive),15.3 µM (inactive),17.6 µM (inactive),15.1 µM (inactive),20.8 µM (inactive),14.9 µM (inactive),20 µM (inactive),15.4 µM (inactive),17.1 µM (inactive),16.8 µM (inactive),28.1 µM (inactive),15.6 µM (inactive),18.8 µM (inactive),32 µM (inactive)
COC(=O)[C@]12CC[C@H]3CN(C(=O)OCc4ccccc4)[C@H]([C@H]31)[C@H](c1ccco1)N2S(=O)(=O)c1ccc(C)cc1,20.3 µM (inactive),18.9 µM (inactive),15.4 µM,16.3 µM (inactive),18.5 µM (inactive),23.5 µM (inactive),19.5 µM (inactive),20.7 µM (inactive),13.5 µM (inactive),25.9 µM (inactive),27.5 µM (inactive),16.5 µM (inactive),27.6 µM (inactive),16.3 µM (inactive),17.5 µM (inactive),73.5 µM (inactive),30.4 µM (inactive),24.2 µM (inactive),12.8 µM (inactive),11.6 µM (inactive)
CC[C@]1(Cc2ccc(OC)c(OC)c2)CN(S(=O)(=O)c2ccc(C)cc2)C[C@@H]1OC(C)=O,> 100 µM (inactive),> 100 µM (inactive),> 100 µM,> 100 µM (inactive),–,> 100 µM (inactive),> 100 µM (inactive),> 100 µM (inactive),> 100 µM (inactive),38.5 µM (inactive),> 100 µM (inactive),> 100 µM (inactive),58.5 µM (inactive),> 100 µM (inactive),> 100 µM (inactive),> 100 µM (inactive),> 100 µM (inactive),> 100 µM (inactive),40.4 µM (inactive),> 100 µM (inactive)
COc1cc2oc3c(c(=O)c2c(O)c1/C=C/C(C)C)CCC(C)(C)Oc1cc(O)ccc1-3,14.3 µM (inactive),13 µM (inactive),10.2 µM,13.1 µM (inactive),13.6 µM (inactive),15.4 µM (inactive),14.4 µM (inactive),16.6 µM (inactive),4.78 µM (inactive),13.3 µM (inactive),–,18.7 µM (inactive),33.9 µM (inactive),9.14 µM (inactive),10.8 µM (inactive),10.4 µM (inactive),21.4 µM (inactive),15.6 µM (inactive),17.6 µM (inactive),20 µM (inactive)
O=c1oc2ccc3ccccc3c2cc1-c1nc2ccccc2o1,> 49.9 µM (inactive),23.3 µM (inactive),36.6 µM,40.6 µM (inactive),22.6 µM (inactive),20 µM (inactive),61.1 µM (inactive),20.6 µM (inactive),16.2 µM (inactive),26.2 µM (inactive),22.5 µM (inactive),25.9 µM (inactive),3.17 µM (inactive),16.6 µM (inactive),33.2 µM (inactive),21.4 µM (inactive),21.8 µM (inactive),22.1 µM (inactive),16.4 µM (inactive),> 38.8 µM (inactive)
O=C(CCCN1CCC2(CC1)C(=O)NC(=O)N2c1ccccc1)c1ccc(F)cc1,> 100 µM (inactive),> 100 µM (inactive),> 100 µM,> 100 µM (inactive),> 100 µM (inactive),> 100 µM (inactive),> 100 µM (inactive),> 100 µM (inactive),> 100 µM (inactive),> 100 µM (inactive),> 100 µM (inactive),> 100 µM (inactive),> 100 µM (inactive),> 100 µM (inactive),> 100 µM (inactive),> 100 µM (inactive),> 100 µM (inactive),> 100 µM (inactive),> 100 µM (inactive),> 100 µM (inactive)
CNC(=O)c1nnn(C2CCCCC2)c1S,> 100 µM (inactive),> 100 µM (inactive),> 100 µM,> 100 µM (inactive),> 100 µM (inactive),> 100 µM (inactive),> 100 µM (inactive),> 100 µM (inactive),> 100 µM (inactive),> 100 µM (inactive),> 100 µM (inactive),> 100 µM (inactive),> 100 µM (inactive),> 100 µM (inactive),> 100 µM (inactive),> 100 µM (inactive),> 100 µM (inactive),> 100 µM (inactive),> 100 µM (inactive),> 100 µM (inactive)
c1ccc([C@@H]2N[C@@]3(CO[Si](c4ccccc4)(c4ccccc4)c4ccccc4)CC[C@H]4CN[C@@H]2[C@H]43)cc1,14.3 µM (inactive),3.58 µM (inactive),3.17 µM,4.36 µM (inactive),13.2 µM (inactive),15.4 µM (inactive),1.66 µM (inactive),17.9 µM (inactive),3.15 µM (inactive),12.4 µM (inactive),12.4 µM (inactive),6.47 µM (inactive),4.07 µM (inactive),10.4 µM (inactive),5.65 µM (inactive),13.8 µM (inactive),3.25 µM (inactive),4.63 µM (inactive),4.61 µM (inactive),2.76 µM (inactive)
C=C1CC(Cn2ccc(=O)[nH]c2=O)(c2ccc(OC)cc2)OC1=O (stereo not drawn),14.8 µM (inactive),12.7 µM (inactive),14.8 µM,2.35 µM (inactive),13.8 µM (inactive),16 µM (inactive),13 µM (inactive),12.8 µM (inactive),2.9 µM (inactive),34.7 µM (inactive),16.3 µM (inactive),13.9 µM (inactive),16.3 µM (inactive),10.9 µM (inactive),7.21 µM (inactive),18.1 µM (inactive),3.7 µM (inactive),23.9 µM (inactive),2.34 µM (inactive),2.88 µM (inactive)
